This test has as its system rumen microbiota. Briefly: Gas Production Test, in vitro rumen fermentation model (Example 1). The test is classed as cell-based. The settings on record: for lag period of cumulative gas production: buffered rumen fluid, 39° C.; for part still unused by the rumen microbes after 24 hours: based on the cumulative gas production profiles; for cumulative gas production after 72 hours (comparison): isonitrogenous, 72 hours in vitro incubation, against blank and other NPN sources. How it is done: The in vitro model used to simulate rumen digestion and utilization of the products is the Gas Production Test protocol, adapted for protein digestibility, as described in more detail in the following paragraph.
Approximately 1 liter of rumen fluid was collected from two different rumen-fistulated animals in the morning. Rumen fluid was strained through a cheesecloth, kept at 39° C. under CO2 and then diluted 1:19 with a nitrogen-free buffer and mineral solution containing 10.03 g NaHCO3, 1.43 g Na2HPO4, 1.55 g KH2PO4, 0.15 g MgSO4·7H2O, 0.52 g Na2S, 0.017 g CaCl2·2H2O, 0.015 g MnCl2·4H2O, 0.002 g […], 0.012 g FeCl3·6H2O and 0.125 mg resazurin per liter.
To ensure the rumen fluid was depleted of free nitrogen and to ensure nitrogen would be the limiting factor for the microbial growth at the start of the experiment, the buffered rumen fluid was pre-incubated for 4 hours at 39° C. with a carbohydrate overload of glucose, xylose and soluble starch, each at 3.33 g/l. During this pre-incubation, all nitrogen available in the rumen fluid would be incorporated into bacterial protein and other bacterial nitrogen-containing components.
Each product was weighed into different glass bottles on an isonitrogenous base, providing 15 mg N per flask. Then, 60 ml of the pre-incubated buffered rumen fluid was added, under continuous flushing with CO2. Flasks were closed with rubber stoppers and placed in a shaking water bath with 50 movements per minute at 39° C. to start the incubation period. The gas production of each flask was recorded continuously for 72 hours using a fully automated system. All test products including a blank (i.e. no product added to the flask of rumen fluid) were tested in one run in triplicate.
The cumulative gas production was measured continuously for 72 hours.

[1] abbreviates: 15 mg N per flask, 72 hours incubation.

Consider 4 molecules from patent publication US20250161245A1, “A MIXTURE OF UREA, BIURET AND N-CONTAINING BY-PRODUCTS CREATED DURING BIURET PRODUCTION AS A DIETARY NON-PROTEIN NITROGEN-SOURCE FOR RUMINANTS AND USES THEREOF” (Yara International ASA, priority 2022, published 2025).

SMILES strings stand for the structures.

`NC(=O)NC(=O)NC(N)=O` [Triuret]: the “part still unused by the rumen microbes after 24 hours” value was “approximately 60%”. In addition, under setting [1], the “time after which gas production stopped / maximum cumulative gas production (end level) was reached” value worked out at 60 h, the “time of highest (peak) gas production” value came out at 20 h and the “lag period of cumulative gas production” value stood at 9 h. For the same molecule, the “gas production rate from 20 to 50 hours” value (20 to 50 hours of incubation) is “approximately 4 ml/hour”.

As for `Nc1nc(=O)[nH]c(=O)[nH]1` [ammelide, Ammelide], the “cumulative gas production after 72 hours (comparison)” value is reported as “not significantly different”.

As for `NC(=O)NC(N)=O` [Biuret], the “part still unused by the rumen microbes after 24 hours” value is “approximately 60%”. Under setting [1], the “time after which gas production stopped / maximum cumulative gas production (end level) was reached” value turned out to be 40 h and the “lag period of cumulative gas production” value was “approximately 5 hours”.

Take `O=c1[nH]c(=O)[nH]c(=O)[nH]1` [cyanuric acid, Cyanuric acid]: the “cumulative gas production after 72 hours (comparison)” value is “not significantly different”.
